The experiment relates to P388. Kind of experiment: Cytotoxicity against mouse P388 cells. It counts as functional. As to conditions: read-out: ED50 (the source's name).

Values after ≈ are worked out from the molar mass of the structure shown.

For `CC1CO[C@]2(CC1OC(=O)/C=C/c1ccccc1)OC1CC(C(=O)O[C@@H]3O[C@H](CO)[C@@H](O)[C@H](O)[C@H]3O[C@@H]3O[C@H](C)[C@@H](O)[C@H](O)[C@H]3O)CCC1[C@]21CO1` (stereo partly specified) [PHYLLANTHOSTATIN 6], the EC50 was found to be 0.35 µg/mL (≈ 0.475 µM).

Values taken from ChEMBL document CHEMBL1158922, “Antineoplastic agents, 177. Isolation and structure of phyllanthostatin 6” (1990).
